The target of series [1] is T1, H3R (Homo sapiens, UniProt Q9Y5N1). Kind of series: Functional H3R NanoBiT-PKA (cAMP sensor) assay in transiently transfected HEK293T cells. It is filed as cell-based.
The target of a further series is T2, mouse H3R (Mus musculus, UniProt P58406).
T2 construct: expressed in transfected cells; host or cells: HEK293T, transient transfection (pcDEF3), cell homogenates
Nature of the series: [3H]NAMH competition radioligand binding on mH3R-expressing cell homogenates. As for the experimental part:
Figure S15. Histamine receptor selectivity binding experiments. Concentration binding curves of trans-3f on cell homogenates expressing H1R (in competition with 4.0-4.8 nM [3H]mepyramine) or H4R (competition with 1.9-2.4 nM [3H]histamine. H2R binding was […]
KAT478). Pooled data of three independent experiments are shown as mean ± SEM.
Figure S16. Radioligand binding experiments with 3f on mH3R-expressing cell homogenates in competition with [3H]NAMH (1.4-1.7 nM). Pooled data of three independent experiments […]
Experimental procedures - Pharmacology […]
were purchased from Promega.
HEK293T cells stably expressing
48 hours post transfection,
[3H]3f binding experiments […]
by sonication (Sonifier Branson).
RT) containing 0.8% ethanol.
The incubation was terminated by
H2R selectivity was assessed
Cells were incubated with ligands

The nature of series [2]: Photostationary state area percentages by LC-MS at the isosbestic point. It is filed as physicochemical.
The target of series [3] is T1, H3R. Nature of the series: [3H]NAMH competition radioligand binding on cell homogenates overexpressing H3R. The conditions noted are these: for Ki: [3H]NAMH competition, n = 3.
A further series addresses Nluc-H2R (Homo sapiens, UniProt P25021). It is filed as binding. The conditions noted are these: trans isomer; at concentrations lower than 1 μM; competition with 50 nM UR-KAT478.
The nature of series [4]: UV-vis spectra of trans and PSS cis states in HBSS buffer. The conditions noted are these: 25 μM in HBSS buffer containing 1% DMSO. The format is physicochemical. As for the experimental part: Experimental procedures – Photochemistry
UV−Vis spectra were recorded using a Thermo-scientific Evolution 201 PC spectrophotometer equipped with a thermostated cell holder set at 20 °C. Fits of UV−vis spectroscopy data were generated using Prism 10.1.0. Illumination for almost all photochemical experiments was executed using a Sutter instruments Lambda LS with a 300 W full-spectrum lamp connected to a Sutter instruments Lambda 10-3 optical filter changer equipped with 360 ± 10 nm, 434 ± 9 nm 494 ± 9 nm, or a Lambda 721 optical beam combiner system equipped with 365 ± 11 nm and 506 ± 14 nm filter. The light intensity used for the lambda 10-3 optical filter is 0.93 mW/mm2 using the 360 ± 20 nm filter, 0.79 mW/mm2 for the 434 ± 9 nm filter, 0.77 mW/mm2 for the 494 ± 9 nm filter as measured using a Thorlabs PM16−401 power meter. The light intensity used for the lambda 721 optical beam combiner is 200 mW using the 365 ± 11 nm filter and 60 mW for the 506 ± 12 nm filter. For photochemical analyses, illuminations were performed in Hellma Suprasil quartz 114QS cuvettes. For the dynamic illuminations, a 4-way cuvette holder (Avantes) was used. The left outlet of the holder is connected to an Avantes AvaLight-DH-S-BAL Deuterium lamp. The right outlet is connected through a fiber to an AvaSpec UV/Vis spectrometer. The lower outlet is connected to a Lambda 721 optical beam combiner system equipped with 365 ± 11 nm and 506 ± 14 nm filter illumination means. The upper outlet is covered with a black cap. The temperature of the solution in the cuvette (20 °C) is controlled by Q-blue Wireless Temperature Control software. […]
The typical distance […]
between light source and vial or cuvette was 2 cm.

The structures appear in SMILES notation. “And” between values parts separate entries of the source, which are not always exact repeats. Equal values may be shown once. Read-outs that look alike come from different tables or passages of the source.

T1 sequence (Q9Y5N1 whole entry): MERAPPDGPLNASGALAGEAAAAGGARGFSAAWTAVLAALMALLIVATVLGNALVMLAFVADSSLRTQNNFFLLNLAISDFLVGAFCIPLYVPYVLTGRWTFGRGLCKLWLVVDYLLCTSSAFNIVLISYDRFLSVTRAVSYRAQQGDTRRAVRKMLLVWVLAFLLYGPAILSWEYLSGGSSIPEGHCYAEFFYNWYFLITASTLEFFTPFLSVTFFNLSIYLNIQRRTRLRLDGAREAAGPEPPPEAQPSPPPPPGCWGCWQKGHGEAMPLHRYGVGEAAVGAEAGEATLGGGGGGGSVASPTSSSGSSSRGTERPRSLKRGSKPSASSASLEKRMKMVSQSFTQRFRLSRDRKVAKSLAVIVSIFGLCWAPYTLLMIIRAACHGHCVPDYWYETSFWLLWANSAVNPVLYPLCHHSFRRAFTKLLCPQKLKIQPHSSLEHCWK
T2 sequence (P58406 whole entry): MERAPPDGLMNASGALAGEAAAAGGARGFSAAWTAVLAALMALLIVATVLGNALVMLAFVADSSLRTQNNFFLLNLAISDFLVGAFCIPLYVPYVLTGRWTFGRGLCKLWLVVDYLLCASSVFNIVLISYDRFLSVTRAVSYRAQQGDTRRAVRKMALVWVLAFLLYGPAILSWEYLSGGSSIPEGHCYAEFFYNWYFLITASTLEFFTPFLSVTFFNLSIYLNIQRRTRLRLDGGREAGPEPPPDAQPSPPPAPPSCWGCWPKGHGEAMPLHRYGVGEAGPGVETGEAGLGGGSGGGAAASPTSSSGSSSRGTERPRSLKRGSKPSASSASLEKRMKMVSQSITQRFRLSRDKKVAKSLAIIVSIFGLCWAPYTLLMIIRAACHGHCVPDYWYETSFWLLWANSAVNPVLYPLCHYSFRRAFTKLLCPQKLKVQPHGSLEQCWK
Chain of Nluc-H2R (P25021 whole entry): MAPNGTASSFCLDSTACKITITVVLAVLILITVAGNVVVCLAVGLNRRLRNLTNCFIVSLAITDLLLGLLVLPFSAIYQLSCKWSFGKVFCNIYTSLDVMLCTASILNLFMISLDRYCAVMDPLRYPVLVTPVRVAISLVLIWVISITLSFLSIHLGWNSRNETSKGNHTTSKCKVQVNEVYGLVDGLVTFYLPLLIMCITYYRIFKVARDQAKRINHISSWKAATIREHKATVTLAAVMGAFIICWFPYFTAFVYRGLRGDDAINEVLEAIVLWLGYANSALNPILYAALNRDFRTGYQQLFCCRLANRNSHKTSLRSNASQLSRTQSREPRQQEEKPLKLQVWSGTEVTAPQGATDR

Take `Cc1nn(C2CCN(C)CC2)c(C)c1/N=N/c1ccc(O[C@H]2C[C@H](N3CCCCC3)C2)cc1` [Compound 3f]: the “block of the H3R agonist response” value at H3R [1] (100 nM trans-3f preincubated, 10 nM immethridine, dark) was “approximately 80%”. For the same compound, the “reversal of the response, % of the maximal agonist response” value at H3R [1] (100 nM trans-3f, 10 nM immethridine, after 365 nm LED light 10 min, 2 mW) is listed as “approximately 80%”. In addition, the IC50 was 398 nM at H3R [1] (365 nm 10 min (second cycle), 10 nM immethridine, read-out: pIC50, dynamic trans-3f switching step 4 (converted)); 794 nM on H3R [1] (365 nm 10 min, 10 nM immethridine, read-out: pIC50, dynamic trans-3f switching step 2 (converted)); 50.1 nM at H3R [1] (500 nm 10 min (second cycle), 10 nM immethridine, read-out: pIC50, dynamic trans-3f switching step 5 (converted)); 50.1 nM on H3R [1] (500 nm 10 min, 10 nM immethridine, read-out: pIC50, dynamic trans-3f switching step 3 (converted)); 398 nM on H3R [1] (PSS cis (pre-illuminated trans-3f), competition with 10 nM immethridine, 15 min incubation, read-out: pIC50 3f-PSScis (converted)); 20 nM on H3R [1] (no irradiation (dark), 10 nM immethridine, read-out: pIC50, dynamic trans-3f switching step 1 (converted)). The IC50 at H3R [1] (trans isomer, competition with 10 nM immethridine, 15 min incubation, read-out: pIC50 trans-3f (converted)) is 31.6 nM. At H3R [1] (trans-3f versus 3f-PSS cis), the “Fold IC50 shift” value was 12.6 fold. In addition, the Ki on mouse H3R (trans isomer, [3H]NAMH (1.4-1.7 nM), read-out: pKi mouse H3R (converted)) is 1.58 nM; on H3R [3] (pKi PSScis ± SEM, PSS cis state) it was 25.1 nM; at H3R [3] (pKi trans ± SEM, trans isomer), 0.501 nM. The “fold shift in affinity upon photoisomerization to PSS cis (mouse H3R)” value on mouse H3R (trans versus PSS cis) stood at 42 fold. Also, in series [2] (after illumination of trans isomer with 365 ± 10 nm at 1 mM in DMSO for 10 min), the “PSScis (area %cis)” value amounted to 98 area %. Further, the “PSStrans (area %trans)” value in series [2] (illumination of PSS cis state with 506 ± 20 nm at 1 mM in DMSO for 10 min) came to 93 area %. The “Fold Ki shift” value at H3R [3] ((high-affinity state)/(low-affinity state), ↓ lower affinity of PSS cis state than trans) is 50 fold and 50.1 ↓ fold. Besides, the “binding to H2R” value on Nluc-H2R is given as “does not bind”. The λmax cis in series [4] was determined as 439 nm. The compound further came in with a λmax trans in series [4] of 348 nm.

These data come from paper PMC12257542, “A Radiolabeled Photoswitchable G Protein-Coupled Receptor Antagonist Enlightens Ligand Binding Kinetics Associated with Photoswitching” (Journal of the American Chemical Society, 2025).
